Assay results as given in patent US20060024699A1, “Method for evaluating a substance capable of effecting on endoplasmic reticulum stress-and/or amyloid beta-induced apoptosis” (priority 2004, published 2006).

Columns and labels:
Type in all cases: cell-based, human
pro-caspase-4 = test: Cleavage of pro-caspase-4 in SK-N-SH cells treated with apoptosis inducers (Western blotting); conditions: tunicamycin 1 μg/ml, thapsigargin 0.5 μM, etoposide 100 μM for 16 or 24 hours, staurosporine 0.1 μM for 8 hours
Experimental: SK-N-SH cells were treated with various kinds of apoptosis inducers such as tunicamycin (manufactured by SIGMA), thapsigargin (manufactured by SIGMA), etoposide (manufactured by SIGMA), staurosporine (manufactured by SIGMA), UV and the like, to evaluate change in caspase-4. Specifically, SK-N-SH cells were treated either with exposure to an endoplasmic reticulum stress inducer, tunicamycin (1 μg/ml) or thapsigargin (0.5 μM), exposure to a non-endoplasmic reticulum stress inducer, etoposide (100 μM) or staurosporine (0.1 μM), or irradiated with 150 J/m2 UV, in α-MEM (manufactured by Invitrogen) containing 10% by weight of fetal bovine serum, at 37° C. under 5% by volume of CO2. Here, the exposures to tunicamycin, thapsigargin and etoposide were 16 or 24 hours, exposure to staurosporine was 8 hours, and UV irradiation was 8 hours.
(§1) Thereafter, the cells obtained were washed with phosphate buffered saline, and then harvested. The resulting cells were lysed in TNE buffer (composition: 10 mM Tris-HCl, pH 7.8, 1 mM EDTA, 150 mM NaCl, 1 mM phenylmethylsulphonyl fluoride) containing 0.5% by weight of NP-40 (trade name: Nonidet P-40), to give a cell extract. Equal amount of a cell extract (corresponding to 15 μg of protein) was subjected to 12% by weight SDS-PAGE. After the SDS-PAGE, proteins on the gel were transferred to a PVDF membrane (manufactured by Millipore). The membrane was blocked with 5% by weight of bovine serum albumin (BSA). The resulting membrane was incubated with a primary antibody (anti-caspase-4 antibody, anti-caspase-3 antibody, anti-caspase-7 antibody or anti-β-actin antibody), and thereafter incubated with a horseradish peroxidase (HRP)-conjugated secondary antibody. Thereafter, caspase-4, caspase-3, caspase-7 or β-actin was detected with trade name: ECL detection system (manufactured by Amersham-Pharmacia).

SK-N-SH cells = test: Thapsigargin-induced cell death assessed by morphological changes in SK-N-SH cells; conditions: untransfected SK-N-SH cells; 0.5 μM thapsigargin for 40 hours
Experimental: In the same manner as described above, cellular morphological changes of SK-N-SH cells treated with various apoptosis inducers were evaluated by phase contrast microscopy. SK-N-SH cells treated in the same manner were stained with 10 μM Hoechst 33342. Nuclear morphological changes of stained cells were evaluated by fluorescence microscopy. Cell death was detected by using as an index cellular morphological changes and nuclear morphological changes. At least 500 cells were counted. The data was expressed as the mean ±SEM from three independent experiments and P values were calculated by Student's t-test.
SK-N-SH cell was transfected at 50% of confluence with 1.0 μg of the siRNA in 24-well plastic plates (manufactured by Nunc) containing αMEM (manufactured by Invitrogen) containing 10% by weight of fetal bovine serum, at 37° C. under 5% by volume of CO2, using trade name: Oligofectamine (manufactured by Invitrogen) according to the manufacturer's protocol. Transfected SK-N-SH cells were incubated at 37° C. for 60 hours without changing the medium.
In addition, SK-N-SH cells after the culturing were incubated in αMEM (manufactured by Invitrogen) containing 10% by weight of fetal bovine serum at 37° C. under 5% by volume of CO2, with or without 0.5 μM thapsigargin for 40 hours. […] Caspase-4 or β-actin was then detected with an ECL detection system (manufactured by Amersham-Pharmacia). […]

caspase-4 = test: Cleavage of caspase-4 in SK-N-SH cells treated with amyloid-β peptides (Western blotting); conditions: 25 μM Aβ25-35, 5 μM Aβ1-40, 25 μM Aβ35-25, 5 M Aβ40-1
Experimental: as §1, with “Amersham-Pharmacia). […]” for “Amersham-Pharmacia).”
SK-N-SH cells were incubated in α-MEM (manufactured by Invitrogen) containing 10% by weight of fetal bovine serum, at 37° C. under 5% by volume of CO2, with 25 μM Aβ25-35, 5 μM Aβ1-40, 25 μM Aβ35-25, or 5 M Aβ40-1. Caspase-4, caspase-7 or β-actin in the cell extract was then detected in the same manner as described above.

SK-N-SH cell = test: Nuclear morphological changes (Hoechst33342) after tunicamycin in vector-transfected SK-N-SH cells; conditions: tunicamycin 1 μg/ml for 30 hours
Experimental: (§2) SK-N-SH cells were stably transfected with pCAGGS-hBcl-2 (Iwahashi, H. et al., Nature, 390, 413-417 (1997), all teachings of which are incorporated herein by reference) by a conventional method. The resulting cells were then cultured in αMEM (manufactured by Invitrogen) containing 10% by weight of fetal bovine serum, at 37° C. under 5% by volume of CO2 to overexpress Bcl-2. Similarly, HeLa cells were stably transfected with pCAGGS-hBcl-2. The resulting cells were then cultured in DMEM (manufactured by Invitrogen) containing 10% by weight of fetal bovine serum, at 37° C. under 5% by volume of CO2 for 48 hours to overexpress Bcl-2. Here, SK-N-SH cells and HeLa cells were stably transfected with trade name: pCAGGS (Hitoshi Niwa et al., Gene, 108, 193-200 (1991), all teachings of which are incorporated herein by reference) as controls, in the same manner as described above, respectively.
(§3) In addition, each of the transfectants was treated with tunicamycin (1 μg/ml) for 30 hours, stained with Hoechst33342, and observed by fluorescence microscopy.

HeLa cell = test: Nuclear morphological changes (Hoechst33342) after tunicamycin in vector-transfected HeLa cells; conditions: tunicamycin 1 μg/ml for 30 hours
Experimental: as §2, §3

| Compound | cleavage of pro-caspase-4 (pro-caspase-4) | cleavage of caspase-4 (caspase-4) | also measured |
| --- | --- | --- | --- |
| COc1cc([C@@H]2c3cc4c(cc3[C@@H](O[C@@H]3O[C@@H]5CO[C@@H](C)O[C@H]5[C@H](O)[C@H]3O)[C@H]3COC(=O)[C@H]23)OCO4)cc(OC)c1O [etoposide] | not cleaved |  |  |
| CN[C@@H]1C[C@H]2O[C@@](C)([C@@H]1OC)n1c3ccccc3c3c4c(c5c6ccccc6n2c5c31)C(=O)NC4 [staurosporine] | not cleaved |  |  |
| C/C=C(/C)C(=O)O[C@H]1C(C)=C2[C@H]([C@@H]1OC(=O)CCCCCCC)[C@@](C)(OC(C)=O)C[C@H](OC(=O)CCC)[C@@]1(O)[C@H]2OC(=O)[C@@]1(C)O [thapsigargin] | induced the cleavage of pro-caspase-4 |  | cells resulting in death (SK-N-SH cells): about 60% |
| Aβ1-40: amyloid-β peptide 1-40 |  | cleavage of caspase-4 was observed |  |
| Aβ25-35: partial peptide of amyloid-β (GSNKGAIIGLM; Amyloid-beta protein 40; UniProt P05067 696-706, looked up, fragment) |  | cleavage of caspase-4 was observed |  |
| tunicamycin | induced the cleavage of pro-caspase-4 |  | apoptotic nuclear morphological changes (SK-N-SH cell): apoptotic nuclear morphological changes were induced; apoptotic nuclear morphological changes (HeLa cell): apoptotic nuclear morphological changes were induced |
